# Legend:
# bedstraw = test: Test B pre/postemergence bedstraw; assay type: in vivo, Galium aparine
# Procedure, shortened: (§1)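 Herbicidal effect was estimated by eye on a ten-point control scale after plants spent twelve to sixteen days in a greenhouse following soil or foliar treatment. Foliar sprays targeted plants at one to four leaves; all doses were formulated in a non-phytotoxic solvent with surfactant.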
# blackgrass = test: Test B pre/postemergence blackgrass; assay type: in vivo, Alopecurus myosuroides
# Procedure, shortened: as §1
# surinam grass = test: Test B pre/postemergence surinam grass; assay type: in vivo, Brachiaria decumbens
# Procedure, shortened: as §1
# cocklebur = test: Test B pre/postemergence cocklebur; assay type: in vivo, Xanthium strumarium
# Procedure, shortened: as §1
# corn = test: Test B pre/postemergence corn; assay type: in vivo, Zea mays
# Procedure, shortened: as §1
# crabgrass = test: Test B pre/postemergence crabgrass; assay type: in vivo, Digitaria sanguinalis
# Procedure, shortened: as §1
# giant foxtail = test: Test B pre/postemergence giant foxtail; assay type: in vivo, Setaria faberii
# Procedure, shortened: as §1
# morningglory = test: Test B pre/postemergence morningglory; assay type: in vivo, Ipomoea hederacea
# Procedure, shortened: as §1
# pigweed = test: Test B pre/postemergence pigweed; assay type: in vivo, Amaranthus retroflexus
# Procedure, shortened: as §1
# rape = test: Test B pre/postemergence rape; assay type: in vivo, Brassica napus
# Procedure, shortened: as §1
# soybean = test: Test B pre/postemergence soybean; assay type: in vivo, Glycine max
# Procedure, shortened: as §1
# sugar beet = test: Test B pre/postemergence sugar beet; assay type: in vivo, Beta vulgaris
# Procedure, shortened: as §1
# velvetleaf = test: Test B pre/postemergence velvetleaf; assay type: in vivo, Abutilon theophrasti
# Procedure, shortened: as §1
# wheat = test: Test B pre/postemergence wheat; assay type: in vivo, Triticum aestivum
# Procedure, shortened: as §1
# wild oat = test: Test B pre/postemergence wild oat; assay type: in vivo, Avena fatua
# Procedure, shortened: as §1
# purple nutsedge = test: Test B pre/postemergence purple nutsedge; assay type: in vivo, Cyperus rotundus
# Procedure, shortened: as §1
# [1] = Preemergence, Rate 62 g/ha, scale of 0 to 10 where 0 is no effect and 10 is complete control
# [2] = Preemergence, Rate 125 g/ha, scale 0 to 10, 0 is no effect, 10 is complete control
# [3] = Preemergence, Rate 500 g/ha, scale of 0 to 10 where 0 is no effect and 10 is complete control
# [4] = Postemergence, Rate 62 g/ha, scale of 0 to 10, 0 is no effect, 10 is complete control
# [5] = Postemergence, Rate 125 g/ha, scale 0 to 10, 0 is no effect, 10 is complete control
# [6] = Postemergence, Rate 500 g/ha, scale 0 to 10, 0 is no effect, 10 is complete control
# [7] = Rate 250 g/ha, Postemergence, scale of 0 to 10 where 0 is no effect and 10 is complete control
# [8] = Preemergence, Rate 250 g/ha, scale 0 to 10, 0 is no effect, 10 is complete control
# [9] = Preemergence, Rate 500 g/ha, scale 0 to 10, 0 is no effect, 10 is complete control
# [10] = Postemergence, Rate 250 g/ha, scale 0 to 10
structure (smiles),measurement,setting,value
CC(C)N(C(=O)n1oc(=O)n(CCC(F)(F)F)c1=O)c1ccc(F)cc1F [Compound 525],"Plant response rating, Bedstraw",bedstraw; [1],0
same,Bedstraw plant response rating,bedstraw; [2],0
same,Bedstraw plant response rating (0 to 10 scale),"bedstraw; Preemergence, Rate 250 g/ha",0
same,Bedstraw plant response rating,bedstraw; [3],0
same,Blackgrass plant response rating,blackgrass; [4],4
same,Blackgrass plant response rating,blackgrass; [5],6
same,"Plant response rating, Blackgrass",blackgrass; [6],8
same,"Plant response rating, Blackgrass",blackgrass; [1],8
same,Blackgrass plant response rating,blackgrass; [2],7
same,Blackgrass plant response rating,blackgrass; [3],8
same,"Plant response rating, Blackgrass",blackgrass; [7],8
same,B. signalgrass plant response rating,surinam grass; [4],0
same,B. signalgrass plant response rating,surinam grass; [5],2
same,"Plant response rating, B. signalgrass",surinam grass; [6],8
same,"Plant response rating, B. signalgrass",surinam grass; [1],9
same,B. signalgrass plant response rating,surinam grass; [3],9
same,"Plant response rating, B. signalgrass",surinam grass; [7],2
same,Cocklebur plant response rating,cocklebur; [4],2
same,Cocklebur plant response rating,cocklebur; [5],2
same,"Plant response rating, Cocklebur",cocklebur; [6],2
same,"Plant response rating, Cocklebur",cocklebur; [1],0
same,Cocklebur plant response rating,cocklebur; [2],0
same,Cocklebur plant response rating (0 to 10 scale),"cocklebur; Preemergence, Rate 250 g/ha",0
same,"Plant response rating, Cocklebur",cocklebur; [7],2
same,Corn plant response rating,corn; [4],0
same,Corn plant response rating,corn; [5],0
same,"Plant response rating, Corn",corn; [6],2
same,"Plant response rating, Corn",corn; [1],0
same,Corn plant response rating,corn; [2],0
same,Corn plant response rating (0 to 10 scale),"corn; Preemergence, Rate 250 g/ha",4
same,Corn plant response rating,corn; [3],8
same,"Plant response rating, Corn",corn; [7],2
same,Crabgrass plant response rating,crabgrass; [4],6
same,"Plant response rating, Crabgrass",crabgrass; [6],9
same,"Plant response rating, Crabgrass",crabgrass; [1],9
same,Crabgrass plant response rating,crabgrass; [2],9
same,Crabgrass plant response rating (0 to 10 scale),"crabgrass; Preemergence, Rate 250 g/ha",10
same,Crabgrass plant response rating,crabgrass; [3],10
same,"Plant response rating, Crabgrass",crabgrass; [7],9
same,Giant foxtail plant response rating,giant foxtail; [4],5
same,Giant foxtail plant response rating,giant foxtail; [5],8
same,"Plant response rating, Giant foxtail",giant foxtail; [6],9
same,"Plant response rating, Giant foxtail",giant foxtail; [1],9
same,Giant foxtail plant response rating,giant foxtail; [2],10
same,Giant foxtail plant response rating (0 to 10 scale),"giant foxtail; Preemergence, Rate 250 g/ha",10
same,Giant foxtail plant response rating,giant foxtail; [3],10
same,"Plant response rating, Giant foxtail",giant foxtail; [7],9
same,Morningglory plant response rating,morningglory; [4],2
same,Morningglory plant response rating,morningglory; [5],2
same,"Plant response rating, Morningglory",morningglory; [6],3
same,"Plant response rating, Morningglory",morningglory; [1],0
same,Morningglory plant response rating,morningglory; [2],0
same,Morningglory plant response rating (0 to 10 scale),"morningglory; Preemergence, Rate 250 g/ha",0
same,Morningglory plant response rating,morningglory; [3],6
same,"Plant response rating, Morningglory",morningglory; [7],2
same,Redroot pigweed plant response rating,pigweed; [4],2
same,Redroot pigweed plant response rating,pigweed; [5],2
same,"Plant response rating, Redroot pigweed",pigweed; [6],8
same,"Plant response rating, Redroot pigweed",pigweed; [1],0
same,Redroot pigweed plant response rating,pigweed; [2],0
same,Redroot pigweed plant response rating,pigweed; [3],3
same,"Plant response rating, Redroot pigweed",pigweed; [7],9
same,Rape plant response rating,rape; [4],0
same,Rape plant response rating,rape; [5],0
same,"Plant response rating, Rape",rape; [6],8
same,"Plant response rating, Rape",rape; [1],0
same,Rape plant response rating,rape; [2],0
same,Rape plant response rating,rape; [3],4
same,"Plant response rating, Rape",rape; [7],3
same,Soybean plant response rating,soybean; [4],3
same,Soybean plant response rating,soybean; [5],5
same,"Plant response rating, Soybean",soybean; [1],0
same,Soybean plant response rating,soybean; [2],0
same,Soybean plant response rating (0 to 10 scale),"soybean; Preemergence, Rate 250 g/ha",0
same,Soybean plant response rating,soybean; [3],0
same,"Plant response rating, Soybean",soybean; [7],5
same,Sugarbeets plant response rating,sugar beet; [4],0
same,Sugarbeets plant response rating,sugar beet; [5],0
same,"Plant response rating, Sugarbeets",sugar beet; [6],8
same,"Plant response rating, Sugarbeets",sugar beet; [1],5
same,Sugarbeets plant response rating,sugar beet; [2],8
same,Sugarbeets plant response rating,sugar beet; [3],9
same,"Plant response rating, Sugarbeets",sugar beet; [7],6
same,Velvetleaf plant response rating,velvetleaf; [4],2
same,Velvetleaf plant response rating,velvetleaf; [5],3
same,"Plant response rating, Velvetleaf",velvetleaf; [6],3
same,"Plant response rating, Velvetleaf",velvetleaf; [1],2
same,Velvetleaf plant response rating,velvetleaf; [2],3
same,Velvetleaf plant response rating (0 to 10 scale),"velvetleaf; Preemergence, Rate 250 g/ha",3
same,Velvetleaf plant response rating,velvetleaf; [3],4
same,"Plant response rating, Velvetleaf",velvetleaf; [7],3
same,Wheat plant response rating,wheat; [4],0
same,Wheat plant response rating,wheat; [5],2
same,"Plant response rating, Wheat",wheat; [6],5
same,"Plant response rating, Wheat",wheat; [1],3
same,Wheat plant response rating,wheat; [3],3
same,"Plant response rating, Wheat",wheat; [7],5
same,Wild oats plant response rating,wild oat; [4],0
same,Wild oats plant response rating,wild oat; [5],2
same,"Plant response rating, Wild oats",wild oat; [6],6
same,"Plant response rating, Wild oats",wild oat; [1],5
same,Wild oats plant response rating,wild oat; [3],8
same,"Plant response rating, Wild oats",wild oat; [7],4
same,Nutsedge plant response rating,purple nutsedge; [4],0
same,Nutsedge plant response rating,purple nutsedge; [5],0
same,"Plant response rating, Nutsedge",purple nutsedge; [6],5
same,"Plant response rating, Nutsedge",purple nutsedge; [1],0
same,Nutsedge plant response rating,purple nutsedge; [2],0
same,Nutsedge plant response rating (0 to 10 scale),"purple nutsedge; Preemergence, Rate 250 g/ha",0
same,Nutsedge plant response rating,purple nutsedge; [3],0
same,"Plant response rating, Nutsedge",purple nutsedge; [7],5
CC(=O)C(C)n1c(=O)on(C(=O)N(c2ccc(F)cc2F)C(C)C)c1=O (stereo not shown) [Compound 517],Bedstraw plant response rating,bedstraw; [4],4
same,Bedstraw plant response rating,bedstraw; [5],7
same,"Plant response rating, Bedstraw",bedstraw; [1],0
same,Bedstraw plant response rating,bedstraw; [2],0
same,Bedstraw plant response rating,bedstraw; [8],0
same,Bedstraw plant response rating,bedstraw; [9],0
same,Blackgrass plant response rating,blackgrass; [4],0
same,Blackgrass plant response rating,blackgrass; [5],3
same,Blackgrass plant response rating,blackgrass; [10],6
same,"Plant response rating, Blackgrass",blackgrass; [6],6
same,"Plant response rating, Blackgrass",blackgrass; [1],2
same,Blackgrass plant response rating,blackgrass; [2],2
same,Blackgrass plant response rating,blackgrass; [8],4
same,Blackgrass plant response rating,blackgrass; [3],4
same,B. signalgrass plant response rating,surinam grass; [4],0
same,B. signalgrass plant response rating,surinam grass; [5],4
same,B. signalgrass plant response rating,"surinam grass; Postemergence, Rate 250 g/ha, scale 0 to 10, 0 no effect, 10 complete control",6
same,"Plant response rating, B. signalgrass",surinam grass; [6],8
same,"Plant response rating, B. signalgrass",surinam grass; [1],0
same,B. signalgrass plant response rating,surinam grass; [2],0
same,B. signalgrass plant response rating,surinam grass; [8],0
same,B. signalgrass plant response rating,surinam grass; [9],0
same,Cocklebur plant response rating,cocklebur; [4],0
same,Cocklebur plant response rating,cocklebur; [5],0
same,Cocklebur plant response rating,cocklebur; [10],0
same,"Plant response rating, Cocklebur",cocklebur; [6],4
same,"Plant response rating, Cocklebur",cocklebur; [1],0
same,Cocklebur plant response rating,cocklebur; [2],0
same,Cocklebur plant response rating,cocklebur; [8],0
same,Cocklebur plant response rating,cocklebur; [3],0
same,Corn plant response rating,corn; [4],0
same,Corn plant response rating,corn; [5],0
same,Corn plant response rating,corn; [10],0
same,"Plant response rating, Corn",corn; [6],4
same,"Plant response rating, Corn",corn; [1],0
same,Corn plant response rating,corn; [2],0
same,Corn plant response rating,corn; [3],3
same,Crabgrass plant response rating,crabgrass; [4],7
same,Crabgrass plant response rating,crabgrass; [5],7
same,Crabgrass plant response rating,crabgrass; [10],8
same,"Plant response rating, Crabgrass",crabgrass; [6],9
same,"Plant response rating, Crabgrass",crabgrass; [1],4
same,Crabgrass plant response rating,crabgrass; [2],4
same,Crabgrass plant response rating,crabgrass; [3],7
same,Giant foxtail plant response rating,giant foxtail; [4],8
same,Giant foxtail plant response rating,giant foxtail; [5],8
same,"Plant response rating, Giant foxtail",giant foxtail; [6],9
same,"Plant response rating, Giant foxtail",giant foxtail; [1],2
same,Giant foxtail plant response rating,giant foxtail; [2],3
same,Giant foxtail plant response rating,giant foxtail; [3],10
same,Morningglory plant response rating,morningglory; [4],2
same,Morningglory plant response rating,morningglory; [5],2
same,"Plant response rating, Morningglory",morningglory; [6],2
same,"Plant response rating, Morningglory",morningglory; [1],0
same,Morningglory plant response rating,morningglory; [2],0
same,Morningglory plant response rating,morningglory; [3],0
same,Redroot pigweed plant response rating,pigweed; [4],0
same,Redroot pigweed plant response rating,pigweed; [5],4
same,"Plant response rating, Redroot pigweed",pigweed; [6],7
same,"Plant response rating, Redroot pigweed",pigweed; [1],8
same,Redroot pigweed plant response rating,pigweed; [2],9
same,Redroot pigweed plant response rating,pigweed; [3],10
same,Rape plant response rating,rape; [4],0
same,Rape plant response rating,rape; [5],0
same,"Plant response rating, Rape",rape; [6],4
same,"Plant response rating, Rape",rape; [1],0
same,Rape plant response rating,rape; [2],0
same,Rape plant response rating,rape; [3],4
same,Soybean plant response rating,soybean; [4],0
same,Soybean plant response rating,soybean; [5],6
same,"Plant response rating, Soybean",soybean; [6],8
same,"Plant response rating, Soybean",soybean; [1],0
same,Soybean plant response rating,soybean; [2],0
same,Soybean plant response rating,soybean; [3],0
same,Sugarbeets plant response rating,sugar beet; [4],0
same,Sugarbeets plant response rating,sugar beet; [5],0
same,"Plant response rating, Sugarbeets",sugar beet; [6],3
same,"Plant response rating, Sugarbeets",sugar beet; [1],0
same,Sugarbeets plant response rating,sugar beet; [2],0
same,Sugarbeets plant response rating,sugar beet; [3],5
same,Velvetleaf plant response rating,velvetleaf; [4],0
same,Velvetleaf plant response rating,velvetleaf; [5],0
same,"Plant response rating, Velvetleaf",velvetleaf; [6],6
same,"Plant response rating, Velvetleaf",velvetleaf; [1],0
same,Velvetleaf plant response rating,velvetleaf; [2],0
same,Velvetleaf plant response rating,velvetleaf; [3],3
same,Wheat plant response rating,wheat; [4],0
same,Wheat plant response rating,wheat; [5],0
same,"Plant response rating, Wheat",wheat; [6],4
same,"Plant response rating, Wheat",wheat; [1],0
same,Wheat plant response rating,wheat; [2],0
same,Wheat plant response rating,wheat; [3],6
same,Wild oats plant response rating,wild oat; [4],0
same,Wild oats plant response rating,wild oat; [5],0
same,"Plant response rating, Wild oats",wild oat; [6],3
same,"Plant response rating, Wild oats",wild oat; [1],4
same,Wild oats plant response rating,wild oat; [2],4
same,Wild oats plant response rating,wild oat; [3],5
same,Nutsedge plant response rating,purple nutsedge; [4],0
same,Nutsedge plant response rating,purple nutsedge; [5],0
same,"Plant response rating, Nutsedge",purple nutsedge; [1],0
same,Nutsedge plant response rating,purple nutsedge; [2],0
same,Nutsedge plant response rating,purple nutsedge; [3],0

# — patent US6737383B1, “Herbicidal oxadiazolidines” (priority 1999, dated 2004)
